Data: patent US10550095B2, “Cancerous cell growth inhibiting compounds” (WISYS TECHNOLOGY FOUNDATION, INC., priority 2016, dated 2020)
Values joined by “and” are separate entries in the source; they are usually repeats but may differ in a detail not shown here. Identical values can stand only once. “Also recorded” adds a separate entry of the source.

Experiments:
zebrafish embryos [1] = assay: Skin Lightening Efficacy of All Analogs on Zebrafish Embryos (Table 1); format: in vivo
Experimental: (§1) The testing protocols for these compounds are as follows: • a. […] The embryos were monitored and imaged throughout their development to track the development of melanin pigment relative to a control group to which water was administered (Protocol 1). • b. […] The embryos were again monitored and imaged throughout their development relative to a control group to which water was administered (Protocol 2). • c. Additionally, to test the ability of the pigment to recover after being treated with our drugs, all embryos were treated at 24 hpf with the chemicals until the 48 hpf or 64 hpf time period, then washed with water to remove the treatment. The embryos were again monitored and imaged throughout their development relative to a control group to which water was administered (Protocol 3).
(§2) The black pigment (or melanin) is very easy to observe in zebrafish. In brief, adult zebrafish are taken to breed embryos. Morphologically normal embryos of 24 hours post fertilization (hpf) stage were selected for incubation in the drugs from 24 to 76 hours. During the incubation, the embryos are monitored and imaged (see FIGS. 1 and 3) to track the development of melanin. […] To broaden the comparison with other skin-whitening products, this project can also test at least three other compounds, Kojic acid, Gallic acid and Haginin. […] In the meantime, the whole organism context also allows us to examine the toxicological profile, if any, of these compounds.

B16-F10 melanoma cells [2] = assay: cells; format: cell-based
B16-F10 melanoma cells [3] = assay: Melanin in melanoma cells; format: cell-based, mouse; settings: for Melanin: melanoma cells
Description: (MEK-I is a known MEK inhibitor as a comparison purchased from Sigma): […]

zebrafish embryos [4] = assay: Inhibition of melanin synthesis in zebrafish embryos, treated 24-76 hpf (Protocol 1); format: in vivo; settings: for pigmentation in comparison to the control group: zebrafish embryos treated 24 to 76 hpf
Experimental: as §1, §2

zebrafish embryos [5] = assay: Effect on existing melanin and/or melanocytes, embryos treated at 48 hpf (Protocol 2); format: in vivo
Experimental: (§3) The testing protocols for these compounds are as follows: • a. […] The embryos were monitored and imaged throughout their development to track the development of melanin pigment relative to a control group to which water was administered (Protocol 1). • b. To test the effects of the drugs on existing melanin and/or melanocytes, the embryos were treated with the chemicals at 48 hpf, after pigment had developed. The embryos were again monitored and imaged throughout their development relative to a control group to which water was administered (Protocol 2). • c. Additionally, to test the ability of the pigment to recover after being treated with our drugs, all embryos were treated at 24 hpf with the chemicals until the 48 hpf or 64 hpf time period, then washed with water to remove the treatment. The embryos were again monitored and imaged throughout their development relative to a control group to which water was administered (Protocol 3).
To test the effects of the drugs on existing melanin and/or melanocytes, the embryos were treated with the chemicals A11, MEK-I and PTU at 48 hpf, after pigment had developed. The embryos were again monitored and imaged throughout their development according to Protocol 2.

zebrafish embryos [6] = assay: Pigment recovery after compound withdrawal (Protocol 3); format: in vivo; settings: treated 24-48 hpf or 24-64 hpf, then washed; by 72 hpf
Experimental: as §3
It has been reported that melanin usually reappears after the withdrawal of skin whitening products. […] The pigmentation was monitored closely for 48-72 hours. Similarly, this experiment was repeated at least three times to gain a reproducible result.

zebrafish embryos [7] = assay: Toxicity in developing zebrafish embryos
Experimental: as §2

MAPK = assay: Western blot for phosphorylated MAPK in melanoma cells; format: cell-based, mouse; settings: melanoma cells (FIG. 19A)
Description: We wanted to further understand the molecular mechanism of A11 and its derivatives by examining the activities of MAPK, Akt, and PRPP pathways which regulate cell proliferation and cell death.
MAPK is involved in the major cell proliferation signaling pathway. In many cancer cells, MAPK is activated at high level by phosphorylation. Using the anti-phosphorylated-MAPK (p-MAPK) on western blot, it is very easy to understand the proliferation ability in cells. […] While the results are against our hypothesis and current understanding, it raises a very interesting mechanism of A11 which requires further investigation. […] The current understanding is that activated MAPK and Akt both lead to cell proliferation.

MITF [8] = assay: Western blot for MITF protein level in B16-F10 cells; format: cell-based, mouse; settings: western blot vs DMSO control (FIG. 21)
Description: (§4) To understand how A11 inhibits melanoma proliferation, we examined the MITF expression level in A11-treated B16-F10 cells by western blot and RT-qPCR.

MITF [9] = assay: RT-qPCR of MITF (mit-f) in melanoma cells; format: cell-based, mouse
Description: as §4
(§5) The results of several qPCR experiments using melanoma cells were compiled in FIG. 20. Pax3 and sox10 are genes determine the melanocyte precursors while mit-f is the specific transcription factor that initiates melanocyte differentiation. Dct and tyr genes are expressed in differentiated melanocytes. […] The decrease in magnitude is not significant likely due to the very heterogeneous cell types in melanoma.

Pax3 = assay: RT-qPCR of Pax3 in melanoma cells; format: cell-based, mouse
Description: as §4, §5

[10] = test system: DCT (dopachrome tautomerase); assay: RT-qPCR of DCT in melanoma cells; format: cell-based, mouse
Description: as §4, §5

tyrosinase = assay: RT-qPCR of tyrosinase in melanoma cells; format: cell-based, mouse
Description: as §4, §5

[11] = test system: transgenic melanoma zebrafish embryos; assay: Melanoma formation and recovery in transgenic melanoma zebrafish embryos; format: in vivo
Experimental: (§6) The intracellular signaling pathway that involves Raf and MEK is known to be the major pathway to regulate cell proliferation. Many current melanoma drugs such as cobimetinib works by inhibiting Raf or MEK. While they are effective in inhibiting melanoma growth, they exert different degrees of side effect on normal cells by inhibiting the Raf-MEK pathway. […] Also, with regard to FIG. 13, the compound SK-03-92 is shown to inhibit melanoma cell growth by approximately 10% at 10 μM and at 100% at 40 μM.

MEK = MEK activity (FIG. 12)
Description: FIG. 12 are photo illustrations of MEK activity with exemplary embodiments of the human drug treatments of the present invention; and
as §6

COc1cc(O)cc(/C=C/Oc2cccc(OC)c2)c1 [Analog A8]
Pigmentation (zebrafish embryos [1]; concentration not given): 10%

COc1cc(O)cc(/C=C/Oc2cccc(C)c2)c1 [Analog A9]
Pigmentation (zebrafish embryos [1]; concentration not given): 10%
Average Melanoma growth (from the previous chart) (B16-F10 melanoma cells [2]; 10 μM): 78%
Average Melanoma growth (from the previous chart) (B16-F10 melanoma cells [2]; 40 μM): 76%
Growth (B16-F10 melanoma cells [2]; melanoma cells, 10 μM): 78%
Growth (B16-F10 melanoma cells [2]; melanoma cells, 40 μM): 76%
Melanin (B16-F10 melanoma cells [3]; 10 μM): 101%
Melanin (B16-F10 melanoma cells [3]; 40 μM): 96%

OC[C@H]1O[C@@H](Oc2ccc(O)cc2)[C@H](O)[C@@H](O)[C@@H]1O [Arbutin]
pigmentation in comparison to the control group (zebrafish embryos [4]; 100 μM): 30%

COc1cc(O)cc(/C=C/Oc2ccccc2)c1 [CL1]
Pigmentation (zebrafish embryos [1]; 40 uM): 0% (40 uM)

COc1cc(/C=C/Oc2ccccc2)cc(OC)c1 [CL2]
Pigmentation (zebrafish embryos [1]; concentration not given): 5%

COc1cc(O)cc(/C=C/Sc2ccccc2)c1 [CL4]
Pigmentation (zebrafish embryos [1]; concentration not given): 0%
Average Melanoma growth (from the previous chart) (B16-F10 melanoma cells [2]; 10 μM): 93%
Growth (B16-F10 melanoma cells [2]; melanoma cells, 10 μM): 93%
Melanin (B16-F10 melanoma cells [3]; 10 μM): 107%

COc1cc(O)cc(/C=C/c2cccs2)c1 [CL6]
Pigmentation (zebrafish embryos [1]; concentration not given): 0%

N#CC(=C(N)Sc1ccccc1N)C(C#N)=C(N)Sc1ccccc1N [MEK-I, reference compound]
Pigmentation (zebrafish embryos [4]; zebrafish embryos treated 24-76 hpf, 10 μM): 60%
effect on existing pigment (in words) (zebrafish embryos [5]): has no effect; also recorded: ineffective
pigmentation recovered after wash-off (zebrafish embryos [6]): 100%
toxicity in embryos (in words) (zebrafish embryos [7]; developing zebrafish embryos): various levels of toxicity; also recorded: Notocord toxicity is present
Average Melanoma growth (from the previous chart) (B16-F10 melanoma cells [2]; 10 μM): 67%
Average Melanoma growth (from the previous chart) (B16-F10 melanoma cells [2]; 20 μM): 35%
Growth (B16-F10 melanoma cells [2]; melanoma cells, 10 μM): 72% and 62%
Melanin (B16-F10 melanoma cells [3]; 10 μM): 104% and 78% and 94%
Melanin (B16-F10 melanoma cells [3]; 20 μM): 82% and 84%
amount of p-MAPK / MAPK activity (in words) (MAPK): effectively suppresses the amount of p-MAPK
MITF protein level (in words) (MITF [8]): high level of MITF
MITF (mit-f) mRNA expression (in words) (MITF [9]): no effect on the MITF transcription
Pax3 expression (in words) (Pax3): increases Pax3 transcription
DCT expression (in words) [10]: decreased
tyrosinase expression (in words) (tyrosinase): decreased

NC(=O)c1cccnc1 [Niacinamide]
pigmentation in comparison to the control group (zebrafish embryos [4]; 1%): 10%

NC(=S)Nc1ccccc1 [PTU, phenylthiourea, reference compound]
pigmentation inhibition (in words) (zebrafish embryos [4]; zebrafish embryos treated 24-76 hpf): nearly complete pigmentation loss
Pigmentation (zebrafish embryos [4]; zebrafish embryos treated 24-76 hpf, 0.003%): 10%
effect on existing pigment (in words) (zebrafish embryos [5]): remove existing pigment
existing pigment remaining (zebrafish embryos [5]): 20%
pigmentation recovered after wash-off (zebrafish embryos [6]): 100%
toxicity in embryos (in words) (zebrafish embryos [7]; developing zebrafish embryos): various levels of toxicity
Average Melanoma growth (from the previous chart) (B16-F10 melanoma cells [2]; concentration not given): 107%
Growth (B16-F10 melanoma cells [2]; melanoma cells, concentration not given): 87% and 107% and 128% and 106%
Melanin (B16-F10 melanoma cells [3]; concentration not given): 59% and 67% and 89% and 64%

COc1cc(O)cc(/C=C/c2cc3ccccc3s2)c1 [SK0392, (E)-3-(2-(Benzo[b]thiophen-2-yl)vinyl)-5-methoxyphenol]
toxicity in embryos (in words) (zebrafish embryos [7]; zebrafish, in vivo): almost no detectable toxicity
Pigmentation (zebrafish embryos [1]; 50 uM): 20% (50 uM)
Average Melanoma growth (from the previous chart) (B16-F10 melanoma cells [2]; 10 μM): 100%
inhibition at 10 µM (B16-F10 melanoma cells [2]; Mus musculus, B16-F10, 10 μM (FIG. 13), read-out: inhibition of melanoma cell growth): ~10%
inhibition at 40 µM (B16-F10 melanoma cells [2]; Mus musculus, B16-F10, 40 μM (FIG. 13), read-out: inhibition of melanoma cell growth): 100%
inhibition of melanoma cell growth / cell number (in words) (B16-F10 melanoma cells [2]; melanoma cells): decrease of melanin as well as the cell number
Growth (B16-F10 melanoma cells [2]; melanoma cells, 10 μM): 100%
Melanin (B16-F10 melanoma cells [3]; 10 μM): 97%
melanin in B16-F10 cells (in words) (B16-F10 melanoma cells [3]; mouse cell line B16-F10): decrease of melanin
formation and recovery of melanoma (in words) [11]: inhibited the formation and recovery of melanoma
MEK activity (in words) (MEK): increasing MEK activity

COc1cc(O)cc(/C=C/Sc2ccccc2C(C)C)c1 [SK0501]
Pigmentation (zebrafish embryos [1]; concentration not given): 0%

COc1ccc(S/C=C/c2cc(O)cc(OC)c2)cc1 [SK0503]
Pigmentation (zebrafish embryos [1]; concentration not given): 0%

COc1cc(O)cc(/C=C/n2ccc(C(F)(F)F)n2)c1 [SK0951]
Pigmentation (zebrafish embryos [1]; concentration not given): 0%

COc1cc(O)cc(/C=C/n2ccc3ccccc32)c1 [SK0953]
Pigmentation (zebrafish embryos [1]; concentration not given): 0%
Average Melanoma growth (from the previous chart) (B16-F10 melanoma cells [2]; 20 μM): 71%
Growth (B16-F10 melanoma cells [2]; melanoma cells, 20 μM): 71%
Melanin (B16-F10 melanoma cells [3]; 20 μM): 96%

COc1cc(O)cc(/C=C/n2ncc3ccccc32)c1 [SK0954]
Pigmentation (zebrafish embryos [1]; concentration not given): 0%

CC1=C(/C=C/C(C)=C/C=C/C(C)=C/C(=O)O)C(C)(C)CCC1 [Tretinoin]
pigmentation in comparison to the control group (zebrafish embryos [4]; 0.1%): 80%
